Experimental data from patent publication US8901120B2, “Substituted N-phenylpyrimidin-2-amine analogs as inhibitors of the Axl kinase” (University of Utah Research Foundation, priority 2011, dated 2014).
pIC50: −log10 of the molar value. Like-named read-outs stand apart in the source and are kept apart here.

Legend:
[1] = biological target: T1, recombinant human Axl kinase (catalytic domain, amino acids 473-894) (Homo sapiens, UniProt P30530); test: Axl kinase activity assay (TR-FRET, fluorescein poly-GT substrate); type: biochemical
T1 construct: catalytic domain, amino acids 473-894; purchased Invitrogen Corporation, Carlsbad, Calif
T1 sequence (P30530 473-894): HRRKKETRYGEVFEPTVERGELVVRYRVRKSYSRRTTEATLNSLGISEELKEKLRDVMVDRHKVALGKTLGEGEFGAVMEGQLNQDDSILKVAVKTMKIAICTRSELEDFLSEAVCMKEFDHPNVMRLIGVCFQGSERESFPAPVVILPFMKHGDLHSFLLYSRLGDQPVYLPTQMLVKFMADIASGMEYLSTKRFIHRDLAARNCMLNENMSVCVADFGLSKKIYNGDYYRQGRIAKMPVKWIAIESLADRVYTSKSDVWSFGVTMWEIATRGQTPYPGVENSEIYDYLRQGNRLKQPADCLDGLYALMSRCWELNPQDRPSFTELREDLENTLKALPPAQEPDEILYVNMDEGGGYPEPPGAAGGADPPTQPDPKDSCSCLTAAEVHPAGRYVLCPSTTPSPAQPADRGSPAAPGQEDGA
Procedure: Test compounds were diluted to desired concentrations in kinase reaction buffer (50 mM HEPES pH 7.5, 10 mM MgCl2, 1 mM EGTA, 2 mM DTT, and 0.01% v/v Tween-20) and were briefly incubated with Axl kinase (Invitrogen Corporation, Carlsbad, Calif.). The Axl kinase used was recombinant human Axl kinase (catalytic domain, amino acids 473-894) with a histidine tag. The reaction was initiated by the addition of ATP and fluorescein-labeled poly-GT substrate (poly Glu:Tyr, 4:1 polymer; Invitrogen). Concentration of the various components in the assay (10 μl reaction volume) were: 1% DMSO, 93 ng/ml Axl kinase, 20 μM ATP, and 200 nM fluorescein poly-GT substrate. Following addition of ATP and fluorescein poly-GT substrate, incubation was for 60 min at room temperature, the enzyme reaction is stopped by addition of 10 μl terbium-labeled anti-phosphotyrosine PY20 antibody in EDTA-containing buffer. Final concentration of EDTA and antibody after addition to the reaction is 10 mM and 2 nM, respectively. The terbium conjugated antibody generates a time-resolved FRET signal with the fluorescein molecule (bound to the poly-GT substrate) when the substrate is phosphorylated. After one hour incubation at room temperature, fluorescence was measured with excitation of 320 nm and dual emission of 495 and 520 urn on an EnVision microplate reader (PerkinElmer). Signal is expressed in terms of a TR-FRET ratio (fluorescence intensity at 520 nm to 495 nm).
(§1) IC50 values are determined using GraphPad Prism 5 software. The data were entered as an X-Y plot into the software as percent inhibition for each concentration of the drug. The concentration values of the drug were log transformed and the nonlinear regression was carried out using the “sigmoidal dose-response (variable slope)” option within the GraphPad software to model the data and calculate IC50 values.

PANC-1 = test: Cell viability assay (ATP-Lite), PANC-1; type: cell-based; conditions: Homo sapiens; PANC-1, 96 hours
Procedure: (§2) All cell lines were cultured in media as recommended by American Type Culture Collection (“ATCC”; supplemented with 10% fetal bovine serum (“FBS”) and 1% penicillin/streptomycin (100 IU/ml pencillin and 100 μg/ml streptomycin) at 37° C. and 5% CO2. The cell lines used in these studies included those indicated in Table II below.
(§3) For cell proliferation assays, 45 μl containing 1000 cells per well were seeded into solid white 384-well plates in appropriate cell growth media containing 10% FBS and incubated overnight at 37° C. and 5% CO2. The following day, test compounds were diluted in serum free growth media to 10× desired concentrations and 5 μl was added to each well. Combined compound and cells were incubated for 96 hours. Following incubation, 40 μl of ATP-Lite solution (PerkinElmer, Inc., Waltham, Massachussetts) was added to each well, incubated for an additional 10 minutes at room temperature and luminescence was measured on an EnVision microplate reader. Percent cell viability for test compounds was calculated by comparing treated wells to appropriate controls (e.g. vehicle treated) included on each plate.
as §1
(§4) The ability of compounds to inhibit the viability of cultured cells was determined using the cell viability assay described above. Activity data for representative compounds is shown below in Table IV for the compounds was tested in the indicated cell lines (PL-45, PANC-1, PSN-1, HepG2, and […]). IC50 values were determined as described above. If IC50 value is indicated as “n.d.”, it means that the compound was […] in the indicated cell line. The compound number corresponds to the numbering used in Table I.

PSN-1 = test: Cell viability assay (ATP-Lite), PSN-1; type: cell-based; conditions: Homo sapiens, PSN1; PSN-1, 96 hours
Procedure: as §2, §3, §1
The ability of compounds to inhibit the viability of cultured cells was determined using the cell viability assay described above. […] IC50 values were determined as described above. If IC50 value is indicated as “n.d.”, it means that the compound was […] in the indicated cell line. The compound number corresponds to the numbering used in Table I.

A549 = test: Cell viability assay (ATP-Lite), A549; type: cell-based; conditions: Homo sapiens; A549, 96 hours
Procedure: as §2, §3, §1, §4

PL45 = test: Cell viability assay (ATP-Lite), PL45; type: cell-based; conditions: Homo sapiens; PL45, 96 hours
Procedure: as §2, §3, §1, §4

HepG2 = test: Cell viability assay (ATP-Lite), HepG2; type: cell-based; conditions: Homo sapiens; HepG2, 96 hours
Procedure: as §2, §3, §1, §4

[2] = 20 μM ATP, 93 ng/ml Axl kinase, 60 min, read-out: IC50 (Axl kinase activity)

SMILES	pIC50 ([1]; tested in triplicate, FIG. 4A, read-out: IC50, inhibition of Axl activity)	pIC50 [1, 2]	pIC50 (PANC-1)	pIC50 (PSN-1)	pIC50 (A549)	pIC50 (PL45)	pIC50 (HepG2)
CN1CCN(Cc2ccc(Nc3ncc(Cl)c(Nc4ccccc4S(=O)(=O)N4CCCC4)n3)cc2)CC1 [5-chloro-N2-(4-((4-methylpiperazin-1-yl)methyl)phenyl)-N4-(2-(pyrrolidin-1-ylsulfonyl)phenyl)pyrimidine-2,4-diamine]	~7.70						
CN1CCN(Cc2ccc(Nc3ncc(Cl)c(Nc4ccccc4S(=O)(=O)N4CCCC4)n3)cc2)CC1 [Compound 1]		7.70	7.47	8.70	8.70	7.33	6.92
CN1CCN(Cc2ccc(Nc3ncc(Cl)c(Nc4ccccc4C(=O)NC4CC4)n3)cc2)CC1 [Compound 2]		7.49	6.52	7.19	8.52	8.52	6.52
CN1CCN(Cc2ccc(Nc3ncc(Cl)c(Nc4ccc(F)cc4S(=O)(=O)N4CCCC4)n3)cc2)CC1 [Compound 3]		7.43	7.03	8.05	8.40	7.77	7.37
CN1CCN(Cc2ccc(Nc3ncc(Cl)c(Nc4ccccc4S(=O)(=O)N(C)C)n3)cc2)CC1 [Compound 4]			7.42		8.10	7.32	8.22
CN1CCC(N(C)c2ccc(Nc3ncc(Cl)c(Nc4ccccc4S(=O)(=O)N(C)C)n3)cc2)CC1 [Compound 5]		7.25	7.10			6.43	
CN1CCN(Cc2ccc(Nc3ncc(Cl)c(Nc4ccccc4C(=O)N4CCCC4)n3)cc2)CC1 [Compound 6]		7.21	7.02	7.68	8.15	7.85	6.71
CN1CCN(Cc2ccc(Nc3ncc(Cl)c(Nc4ccccc4C(=O)N(C)C)n3)cc2)CC1 [Compound 7]		7.06	6.85	7.15	7.72	7.02	7.24
CN1CCN(Cc2ccc(Nc3ncc(Cl)c(-c4ccc(F)cc4S(=O)(=O)N(C)C)n3)cc2)CC1 [Compound 8]		7.00					
CN1CCN(Cc2ccc(Nc3ncc(Cl)c(-c4ccc(F)cc4S(=O)(=O)N4CCCC4)n3)cc2)CC1 [Compound 9]		6.92	6.32	6.72	7.11	6.37	6.28
CN1CCN(Cc2ccc(Nc3ncc(Cl)c(Nc4ccc(F)cc4S(=O)(=O)N4CCOCC4)n3)cc2)CC1 [Compound 10]		6.62					
Cc1cnc(Nc2ccc(CN3CCN(C)CC3)cc2)nc1-c1ccc(C(C)(C)C#N)cc1 [Compound 11]		6.54	5.24	5.59		5.09	
Cc1cnc(Nc2ccc(N(C)C3CCN(C)CC3)cc2)nc1-c1ccc(F)c(Cl)c1 [Compound 12]		6.38	4.96	5.17		4.86	
Cc1cnc(Nc2ccc(CN3CCN(C)CC3)cc2)nc1-c1cccc(Cl)c1 [Compound 13]		6.35	5.12	5.58		5.32	
Cc1cnc(Nc2ccc(CN3CCN(C)CC3)cc2)nc1-c1ccc(F)c(Cl)c1 [Compound 14]		6.14	5.11	5.37		4.84	
CN1CCN(Cc2ccc(Nc3ncc(Cl)c(Nc4ccc(Cl)cc4S(=O)(=O)N4CCCC4)n3)cc2)CC1 [Compound 15]		5.97					

SMILES	pIC50 ([1]; tested in triplicate, FIG. 4A, read-out: IC50, inhibition of Axl activity)	pIC50 [1, 2]	pIC50 (PANC-1)	pIC50 (PSN-1)	pIC50 (A549)	pIC50 (PL45)	pIC50 (HepG2)
CN1CCN(Cc2ccc(Nc3ncc(F)c(-c4ccc(F)cc4S(=O)(=O)N4CCCC4)n3)cc2)CC1 [Compound 16]		5.94					
CN1CCN(Cc2ccc(Nc3ncc(Cl)c(Nc4ccc(O)cc4S(=O)(=O)N4CCCC4)n3)cc2)CC1 [Compound 17]		5.88					
Cc1cnc(Nc2ccc(CN3CCN(C)CC3)cc2)nc1Oc1ccc(F)c(Cl)c1 [Compound 18]		5.85					
COc1cccc(-c2nc(Nc3ccc(CN4CCN(C)CC4)cc3)ncc2C)c1 [Compound 19]		5.79					
Cc1ccc(-c2nc(Nc3ccc(CN4CCN(C)CC4)cc3)ncc2C)cc1C#N [Compound 20]		5.74					
Cc1cnc(Nc2ccc(CN3CCN(C)CC3)cc2)nc1-c1ccc(F)cc1 [Compound 21]		5.73					
CC(=O)Nc1cccc(-c2nc(Nc3ccc(CN4CCN(C)CC4)cc3)ncc2C)c1 [Compound 22]		5.64					
Cc1cnc(Nc2ccc(CN3CCN(C)CC3)cc2)nc1-c1cccc(S(C)(=O)=O)c1 [Compound 23]		5.54					
Cc1cnc(Nc2ccc(CN3CCN(C)CC3)cc2)nc1-c1ccc(F)cc1S(=O)(=O)N1CCCC1 [Compound 24]		5.53					
Cc1cnc(Nc2ccc(CN3CCN(C)CC3)cc2)nc1-c1cccc(OC(F)(F)F)c1 [Compound 25]		5.48					
CN1CCN(Cc2ccc(Nc3ncc(C4CC4)c(-c4ccc(F)c(Cl)c4)n3)cc2)CC1 [Compound 26]		5.47					
CN1CCN(Cc2ccc(Nc3ncc(Cl)c(N(C)c4ccc(F)cc4S(=O)(=O)N4CCCC4)n3)cc2)CC1 [Compound 27]		5.41					
Cc1cnc(Nc2ccc(CN3CCN(C)CC3)cc2)nc1-c1cc(Cl)cc(C(F)(F)F)c1 [Compound 28]		5.29					
CN1CCN(Cc2ccc(Nc3nc(N)cc(-c4ccc(F)c(Cl)c4)n3)cc2)CC1 [Compound 29]		4.24					
Cc1cnc(Nc2ccc(CN3CCN(C)CC3)cc2)nc1Nc1ccc(F)c(Cl)c1 [Compound 30]		4.20					
CN1CCN(Cc2ccc(Nc3ncc(C(F)(F)F)c(Nc4ccccc4C(=O)N(C)C)n3)cc2)CC1 [Compound 31]		< 4.00					
